Assay [1] has as its system Tau model mice. Put plainly: Morris water maze test of learning memory. In kind it is in vivo. The settings on record: 10-month-old Tau model mice, oral 20 mg/kg for 3 consecutive months.
In assay [2] the test system is Hela-mt-Keima cells. Put plainly: Flow cytometry of Hela-mt-Keima cells for screening a mitophagy drug. In kind it is cell-based. Conditions: 10 μM JGX-1+10 μM FCCP (FIG. 1 legend: JGX-1 10 μM). From the text: The Keima fluorescent protein derived from anthozoan has a pH value-dependent bimodal excitation spectrum, that is, Keima can be excited to emit green fluorescence at neutral pH and acidic pH and red fluorescence under the excitation of light with a wavelength of 440 nm and 586 nm, respectively. Since mitochondria that undergo autophagy eventually enter acidic lysosomes, Keima with the mitochondrial localization (mitocondrial Keima, mt-Keima) can indicate the mitochondria that enter the lysosomes via the autophagic pathway. The specific procedure of this experiment is as follow:
Inoculation of Hela-mt-Keima cells into a 24-well plate at a density of 5×10^4, and then adding 1 mL of DMEM medium containing 10% (v/v) fetal bovine serum (FBS) to them to culture for 24 h; after 24 h, respectively adding 0.1% (v/v) DMSO (dimethyl sulfoxide), with DMSO (10 μM) as a solvent control group (DMSO), 10 μM of mitochondrial uncoupling agent (FCCP) (sigma) as a positive drug control group, and 10 μM JGX-1+10 μM FCCP as an experimental group, each group having 3 replicates; collecting cells on the third day by centrifugation at 1000×g for 3 min, resuspending in 0.5 mL of PBS buffer, sieving at 40 μm on the machine, collecting 5×10^4 cells by flow cytometry, recording the collection time, 405 nm/Qdot605-A, 561 nm/PE-Texas Red-A, and calculating MI=561/405+561.

In assay [3] the test system is LC3B. Put plainly: Western blot of LC3B in hSY5Y cells. In kind it is cell-based. Conditions: JGX-1 10 μmol/L, 24 h.
Text: • a. […]

The subject of assay [4] is pTAU (202). Put plainly: Western blot of phosphorylated Tau in hSY5Y cells. The assay is classed as cell-based. The settings on record: JGX-1 10 μmol/L, 24 h.
Text: • a. […]

Assay [5] deals with Hela-mt-Keima cells. Description: Detection of mitophagy in Hela-mt-Keima cells by confocal microscopy. The assay is classed as cell-based. Conditions: 10 μM JGX-1, 8 h. From the text:
The Keima fluorescent protein derived from anthozoan has a pH value-dependent bimodal excitation spectrum, that is, Keima at neutral pH and acidic pH can be excited to emit green fluorescence and red fluorescence under the excitation of light with a wavelength of 440 nm and 586 nm, respectively. Since mitochondria that undergo autophagy eventually enter acidic lysosomes, Keima with the mitochondrial localization (mitochondrial Keima, mt-Keima) can indicate the mitochondria that enter the lysosomes via the autophagic pathway. The specific procedure of this experiment is as follows:
Inoculation of Hela-mt-Keima cells into 12 laser confocal cell culture dishes at a density of 1×10^4, and then adding 1 mL of DMEM medium containing 10% (v/v) FBS; after 5 h, changing the solution, and dividing into a solvent control group (DMSO), a positive drug control group (10 μM FCCP), an experimental group 1 (10 μM JGX-1+10 μM FCCP) and an experimental group 2 (10 μM JGX-1), with 3 replicates in each group; incubating cells in a 5% (v/v) CO2 cell culture incubator at 37° C.; after 8 h, observing the changes in the excitation fluorescence signals of the 458 nm channel (indicating Keima at neutral pH) and the 561 nm channel (indicating Keima at acidic pH) under a laser confocal microscope, randomly selecting 3 fields of view to take photos, and then statistically plotting.

`COC(=O)[C@]1(C)CCCC2=C1CC[C@@H](C)[C@]2(C)CCC1=CC(=O)OC1` [JGX-1, Crassifolin A]: in assay [1], the “dementia symptoms in the model mice” value is recorded as “alleviated” and the “learning memory of AD model mice” value was “improved effect”. In addition, in assay [2], the “mitophagy (flow cytometry, MI=561/405+561)” value is listed as “enhance mitophagy”. Moreover, the “expression of autophagic LC3B” value in assay [3] is recorded as “enhanced”. Also, the “expression of phosphorylated Tau” value in assay [4] is “inhibited”. Besides, the “mitophagy (confocal live cell imaging)” value in assay [5] is reported as “enhance mitophagy”.
